One test deals with HepG2 XBP1(u)-Luc cells. Kind of test: HepG2 XBP1 reporter assay. It counts as cell-based. To be noted: Homo sapiens, 6 h. The protocol: HepG2 hepatoma cells were transduced with a retrovirus encoding the cDNA for unspliced (u) XBP1, which contains a non-processed intron, fused to the cDNA for firefly luciferase. Upon induction of ER stress, the non-processed intron of XBP1(u) is spliced out by active IRE1alpha endonuclease. The resulting spliced (s) XBP1 is now in frame with luciferase which causes the production of active luciferase protein, resulting in bioluminescence
HepG2 XBP1(u)-Luc cells were plated […] Cultured cells with a stably transfected reporter construct were plated at approximately 30,000 cells per well into 96 well multi-well plates for twenty four hours. The testing compounds were then added to the wells in 3-fold serial dilutions using a twenty seven micromolar top concentration. A series of control wells for each cell type received only compound solvent. Six hours after the addition of compound, reporter activity for luciferase was assayed, by addition of the SteadyGlo luminescence reagent (Promega). The reporter luminescence activity was measured using Pherastar plate reader (BMG Labtech). Readings was normalized to DMSO only treated cells, and normalized activities were then used in the IC50 calculations. The HepG2 XBP1 reporter assay data are summarized in Table 47: A<0.6 μM; 0.6 μM≤B<2.0 μM; 2.0 μM≤C<10.0 μM; D≥10.0 μM.

The test system of another test is Colo-205 cells. The test can be described thus: Calcium flux assay (FLIPR Calcium 5). Format: cell-based. The note with it: FLIPR Calcium 5, measured over 36 minutes. The protocol: Compounds described herein induced ER stress by causing intracellular calcium flux. Calcium flux was measured in Colo-205 cells using the FLTPR® Calcium 5 Assay Kit according to manufacter's protocol (Molecular Devices, Cat. #R8186) on a FLIPR3 system (Molecular Devices). Calcium flux is measured over 36 minutes. The Colo-205 calcium flux assay data are summarized in Table 47: A<0.6 μM; 0.6 μM≤B<2.0 μM; 2.0 μM≤C<10.0 μM; D≥10.0 μM.
On the technique in general: Calcium flux is commonly read through the fluorescence of an indicator in the cells.

Test [1] has as its system Colo205-TCF/LEF-Luciferase (Luc) tumor. Kind of test: In vivo inhibition of TCF/LEF reporter activity in Colo-205 tumors. The arrangement: concentration or dose not given beside the values. The note with it: TCF/LEF luciferase reporter in Colo-205 tumors, nu/nu mice, oral gavage. The essentials:
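Female nu/nu mice carried subcutaneous Colo205-TCF/LEF-luciferase tumours (200–500 mm^3), n=4 per group. Compound was given by oral gavage in 1:3:5:1 EtOH:DMSO:PEG-400:H2O at 10 ml/kg, with vehicle as control. Luciferase activity in tumour lysates (Steady-Glo) was normalised to BCA protein.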
For orientation: In a reporter assay the amount or activity of a reporter protein is the signal.

pEC50, pIC50: −log10 of the molar value.

The term pIC50 denotes the negative decadic logarithm of the IC50, by convention in mol/L. What is called pEC50 is −log10 of the EC50, conventionally taken in molar units.

`Cc1nc(N[C@H]2CC[C@H](n3ccc(C(F)(F)F)n3)C2)nc2c1NC(=O)[C@H](C)N2C` (single isomer, unassigned) [Compound 310] had a pIC50 in the test with HepG2 XBP1(u)-Luc cells of over 6.22. The pEC50 in the test with Colo-205 cells (Homo sapiens, COLO 205, 0.6 h) is 5.00 to 5.70.

In the test on HepG2 XBP1(u)-Luc cells, `Cc1nc(N[C@@H]2CC[C@@H](n3ccc(C(F)(F)F)n3)C2)nc2c1NC(=O)[C@H](C)N2C` (single isomer, unassigned) [Compound 311] showed a pIC50 of over 6.22. Besides, in the test with Colo-205 cells (Homo sapiens, COLO 205, 0.6 h), the pEC50 is over 6.22.

`Cc1nc(N[C@H]2CC[C@H](Oc3ccc(C(F)(F)F)nc3)C2)nc2c1NC(=O)[C@H](C)N2C` (single isomer, unassigned) [Compound 376] had a negative logarithm of the IC50 (pIC50) in the test with HepG2 XBP1(u)-Luc cells of 5.70 to 6.22. In the test with Colo-205 cells (Homo sapiens, COLO 205, 0.6 h), the pEC50 is 5.70 to 6.22.

Turning to `Cc1nc(NCc2cnn(Cc3ccc(F)cc3)c2)nc2c1N(C)C(=O)[C@H](C)N2C` [Compound 1, (7S)-2-(((1-(4-fluorobenzyl)-1H-pyrazol-4-yl)methyl)amino)-4,5,7,8-tetramethyl-7,8-dihydropteridin-6(5H)-one], the “Percent Remaining Activity at 8 hrs after Dosing” value (shortened to “Percent Remaining Activity”) in test [1] is 32%. The pEC50 in the test with Colo-205 cells (Homo sapiens, COLO 205, 0.6 h) is over 6.22.

For `Cc1nc(NCc2cnn(Cc3ccc(F)cc3)c2)nc2c1NC(=O)[C@H](C)N2C` [Compound 4, (7S)-2-(((1-(4-fluorobenzyl)-1H-pyrazol-4-yl)methyl)amino)-4,7,8-trimethyl-7,8-dihydropteridin-6(5H)-one], in test [1], the “Percent Remaining Activity” value turned out to be 23%. Further, the pEC50 in the test with Colo-205 cells (Homo sapiens, COLO 205, 0.6 h) is over 6.22.

`Cc1nc(NCc2cnn(CCc3ccc(F)cc3)c2)nc2c1NC(=O)[C@H](C)N2C` [Compound 6, (7S)-2-(((1-(4-fluorophenethyl)-1H-pyrazol-4-yl)methyl)amino)-4,7,8-trimethyl-7,8-dihydropteridin-6(5H)-one] showed a negative logarithm of the IC50 (pIC50) in the test with HepG2 XBP1(u)-Luc cells of 5.70 to 6.22. The pEC50 in the test with Colo-205 cells (Homo sapiens, COLO 205, 0.6 h) was 5.70 to 6.22.

For the molecule `Cc1nc(NCc2cnn(CC3CCC3)c2)nc2c1N(C)C(=O)[C@H](C)N2C` [Compound 7, (7S)-2-(((1-(cyclobutylmethyl)-1H-pyrazol-4-yl)methyl)amino)-4,5,7,8-tetramethyl-7,8-dihydropteridin-6(5H)-one], the pIC50 with HepG2 XBP1(u)-Luc cells is 5.70 to 6.22. Moreover, the pEC50 in the test on Colo-205 cells (Homo sapiens, COLO 205, 0.6 h) was 5.70 to 6.22.

As for `Cc1nc(NCc2cnn(CCc3ccc(F)cc3)c2)nc2c1N(C)C(=O)[C@H](C)N2C` [Compound 8, (7S)-2-(((1-(4-fluorophenethyl)-1H-pyrazol-4-yl)methyl)amino)-4,5,7,8-tetramethyl-7,8-dihydropteridin-6(5H)-one], the pIC50 with HepG2 XBP1(u)-Luc cells was 5.00 to 5.70. Moreover, in the test on Colo-205 cells (Homo sapiens, COLO 205, 0.6 h), the negative logarithm of the EC50 (pEC50) is 5.00 to 5.70.

Turning to `CC[C@H]1C(=O)Nc2cnc(NCc3cnn(Cc4ccc(F)cc4)c3)nc2N1C` [Compound 9, (7S)-7-ethyl-2-(((1-(4-fluorobenzyl)-1H-pyrazol-4-yl)methyl)amino)-8-methyl-7,8-dihydropteridin-6(5H)-one], the pIC50 in the test with HepG2 XBP1(u)-Luc cells was 5.70 to 6.22. Besides, the pEC50 in the test on Colo-205 cells (Homo sapiens, COLO 205, 0.6 h) is 5.70 to 6.22.

Regarding `COc1c(F)cc(Cn2cc(CNc3nc(C)c4c(n3)N(C)[C@@H](C)C(=O)N4)cn2)cc1F` [Compound 46, (7S)-2-(((1-(3,5-difluoro-4-methoxybenzyl)-1H-pyrazol-4-yl)methyl)amino)-4,7,8-trimethyl-7,8-dihydropteridin-6(5H)-one], the “Percent Remaining Activity” value in test [1] is listed as 20%. Moreover, in the test with Colo-205 cells (Homo sapiens, COLO 205, 0.6 h), the pEC50 is over 6.22.

As to `Cc1nc(NCc2cnn(Cc3ccc(F)nc3)c2)nc2c1NC(=O)[C@H](C)N2C` [Compound 77], the “Percent Remaining Activity” value in test [1] was found to be 30%. Besides, the pEC50 with Colo-205 cells (Homo sapiens, COLO 205, 0.6 h) was 5.70 to 6.22.

In the test on HepG2 XBP1(u)-Luc cells, `COc1cc(F)ccc1Cn1cc(CNc2nc(C)c3c(n2)N(C)[C@@H](C)C(=O)N3)cn1` [Compound 83, (7S)-2-(((1-(4-fluoro-2-methoxybenzyl)-1H-pyrazol-4-yl)methyl)amino)-4,7,8-trimethyl-7,8-dihydropteridin-6(5H)-one] had a pIC50 of 5.70 to 6.22. Also, the negative-log EC50 (pEC50) in the test on Colo-205 cells (Homo sapiens, COLO 205, 0.6 h) is over 6.22.

The molecule `Cc1cc(F)ncc1Cn1cc(CNc2nc(C)c3c(n2)N(C)[C@@H](C)C(=O)N3)cn1` [Compound 94, (7S)-2-(((1-((6-fluoro-4-methylpyridin-3-yl)methyl)-1H-pyrazol-4-yl)methyl)amino)-4,7,8-trimethyl-7,8-dihydropteridin-6(5H)-one] had a pIC50 in the test on HepG2 XBP1(u)-Luc cells of 5.70 to 6.22. For the same molecule, the pEC50 with Colo-205 cells (Homo sapiens, COLO 205, 0.6 h) is 5.70 to 6.22.

For `Cc1nc(NCc2cnn(C[C@H](C)c3ccc(F)cc3)c2)nc2c1NC(=O)[C@H](C)N2C` [Compound 96, (7S)-2-(((1-((R)-2-(4-fluorophenyl)propyl)-1H-pyrazol-4-yl)methyl)amino)-4,7,8-trimethyl-7,8-dihydropteridin-6(5H)-one], the pIC50 in the test on HepG2 XBP1(u)-Luc cells is over 6.22. Moreover, the pEC50 in the test on Colo-205 cells (Homo sapiens, COLO 205, 0.6 h) was over 6.22.

As for `Cc1nc(NCc2cnn(CCC3CCOCC3)c2)nc2c1NC(=O)[C@H](C)N2C` [Compound 115, (7S)-4,7,8-trimethyl-2-(((1-(2-(tetrahydro-2H-pyran-4-yl)ethyl)-1H-pyrazol-4-yl)methyl)amino)-7,8-dihydropteridin-6(5H)-one], in the test on HepG2 XBP1(u)-Luc cells, the pIC50 is at most 5.00. Also, the pEC50 in the test on Colo-205 cells (Homo sapiens, COLO 205, 0.6 h) was 5.00 to 5.70.

Consider `Cc1nc(N[C@H]2C[C@H](Oc3cc(F)c(F)c(F)c3)C2)nc2c1NC(=O)[C@H](C)N2C` [Compound 246, (7S)-4,7,8-trimethyl-2-((trans-3-(3,4,5-trifluorophenoxy)cyclobutyl)amino)-7,8-dihydropteridin-6(5H)-one], for which the “Percent Remaining Activity” value in test [1] was determined as 18%. Also, the pEC50 with Colo-205 cells (Homo sapiens, COLO 205, 0.6 h) is at most 5.00.

On to `Cc1nc(N[C@H]2C[C@H](Oc3ccc(F)cc3)C2)nc2c1N(C)C(=O)[C@H](C)N2C` [Compound 250, (7S)-2-((trans-3-(4-fluorophenoxy)cyclobutyl)amino)-4,5,7,8-tetramethyl-7,8-dihydropteridin-6(5H)-one], for which the pEC50 in the test on Colo-205 cells (Homo sapiens, COLO 205, 0.6 h) was 5.70 to 6.22.

Take `Cc1nc(N[C@H]2C[C@H](Oc3cc(F)c(F)c(F)c3)C2)nc2c1N(C)C(=O)[C@H](C)N2C` [Compound 253, (7S)-4,5,7,8-tetramethyl-2-((trans-3-(3,4,5-trifluorophenoxy)cyclobutyl)amino)-7,8-dihydropteridin-6(5H)-one]: the “Percent Remaining Activity” value in test [1] is 15%. For the same molecule, the pEC50 in the test on Colo-205 cells (Homo sapiens, COLO 205, 0.6 h) was over 6.22.

As to `Cc1nc(N[C@H]2C[C@@H](COc3cc(F)c(F)c(F)c3)C2)nc2c1NC(=O)[C@H](C)N2C` [Compound 257, (7S)-4,7,8-Trimethyl-2-((cis-3-((3,4,5-trifluorophenoxy)methyl)cyclobutyl)-amino)-7,8-dihydropteridin-6(5H)-one], the “Percent Remaining Activity” value in test [1] was 30%. In addition, the pEC50 in the test on Colo-205 cells (Homo sapiens, COLO 205, 0.6 h) was 5.70 to 6.22.

On to `Cc1nc(N[C@H]2C[C@H](COc3cc(F)c(F)c(F)c3)C2)nc2c1NC(=O)[C@H](C)N2C` [Compound 258, (7S)-4,7,8-trimethyl-2-((trans-3-((3,4,5-trifluorophenoxy)methyl)-cyclobutyl)amino)-7,8-dihydropteridin-6(5H)-one], for which the pEC50 in the test on Colo-205 cells (Homo sapiens, COLO 205, 0.6 h) is 5.70 to 6.22.

As to `Cc1nc(N[C@@H]2CC[C@@H](Oc3cc(F)c(F)c(F)c3)C2)nc2c1N(C)C(=O)[C@H](C)N2C` [Compound 272, (S)-4,5,7,8-tetramethyl-2-(((1R,3R)-3-(3,4,5-trifluorophenoxy)cyclopentyl)amino)-7,8-dihydropteridin-6(5H)-one], the “Percent Remaining Activity” value in test [1] was 14%. Moreover, the pEC50 in the test with Colo-205 cells (Homo sapiens, COLO 205, 0.6 h) was 5.70 to 6.22.

As for “(7S)-4,7,8-trimethyl-2-((trans-3-(3,4-difluorophenoxy)cyclobutyl)amino)-7,8-dihydropteridin-6(5H)-one [Compound 251]”, the pEC50 in the test with Colo-205 cells was 5.70 to 6.22.

(Values after patent US20230312587A1, “PTERIDINONE COMPOUNDS AND USES THEREOF” (Vertex Pharmaceutical Incorporated, priority 2018, published 2023).)
